Series [1] is described as follows: Repeat dose tox study in rats. Type of series: in vivo, rat. Conditions: up to 10 ug/kg/day for 7 days, IV tail vein injection. Here is the method: In a repeat dose tox study in rats—animals were given up to 10 ug/kg/day for 7 days by IV tail vein injection. […] In a repeat dose tox study in mini-pigs—animals were given up to 5 ug/kg/day IV approximately 1×/week.

Series [2] in a line: In vitro blood plasma binding, mini pig. Type of series: in vitro ADME. An excerpt: This may complicate IV delivery.
Series [3] can be described thus: IV bolus dose study, cardiovascular effects in mini-pig. Type of series: in vivo. The settings on record: doses up to 5 ug/kg (highest tested). An excerpt:
In multiple IV bolus dose studies, the following was observed.

Another series deals with TH. Briefly: Injection into the ventricles of WT mice, TH in striatum. Type of series: in vivo, mouse. Conditions: 0.3, 3, and 30 uM injected into ventricles of WT mice; 1 and 5 days post injection. The procedure:
In vivo, PEP stimulates synuclein degradation. Dosage studies of 0.3, 3, and 30 uM PEP was injected into the ventricles of WT mice.

The test system of a further series is SNCA. Briefly: SNCA gene expression over PEP005 time-course (qPCR). Conditions: 4 hours after PEP005 treatment. Type of series: cell-based, human. Here is the method:
qPCR: Total cellular RNA was isolated using TRIzol Reagent followed by Qiagen RNeasy Mini kit with DNase treatment. Total RNA (1 μg) was used for cDNA synthesis using the Quantitate Reverse Transcription Kit for cDNA synthesis for PCR (Qiagen). Real-time PCR was performed using the SYBR Green Supermix (BIO-RAD). The levels of expression of respective genes were normalized to corresponding GAPDH values and shown as fold change relative to the value of the control sample (ΔΔCt method)

Series [4] in a line: PK profile in mice after IV tail vein injection. Type of series: in vivo, mouse. The settings on record: 10 and 50 ug/kg IV tail vein. The procedure:
In a study to determine PK profile of PEP in mice—10 and 50 ug/kg were administered by IV tail vein injection. […] Again potentially problematic for IV delivery.

A further series concerns cleaved caspase 3 (CC3). The series is described as follows: Cleaved caspase 3 in mDA cultures over PEP005 time-course (western blot). Conditions: PD/EOSPD cultures, PEP005 treatment. Type of series: cell-based, human. Here is the method:
Western blot: Cells were gently scraped off the plates, washed with PBS, centrifuged at 15000 RPM for 1 min, and dry pellets were frozen at −80° C. Samples were then thawed and lysed using 1×NETN buffer (20 mM Tris-HCl (pH 8.0), 100 mM NaCl, 0.5 mM EDTA and 0.5% NP-40) supplemented with phosphatase/protease inhibitor cocktail (MS-SAFE, Sigma-Aldrich). Lysates were sonicated in an automated cold bath sonicator for 20 mins using alternating 10 sec pulses followed by 10 sec rests. Samples were centrifuged for 20 min at 4° C. at 15000 RPM. Total soluble protein concentrations were measured using a Bradford assay (BIO-RAD). 4× Laemmli sample buffer (BIO-RAD 161-0774) was added to either 100 μg or 50 μg of total protein extracts and samples were boiled for 5 min. […] Membranes were blocked with Odyssey blocking buffer (LI-COR) and then incubated with primary antibodies for overnight at 4° C. or room temperature for 3 hours. Following incubation with dye-labeled secondary antibodies for 2 hours at room temperature, signals were visualized using an Odyssey Fc imaging system (LI-COR). […] Combined α-synuclein and p-PKCα expression plots were calculated by first normalizing bands to β-actin, then to the 02iCTR signal present in each blot. […] ROC plot and area under the curve was determined using R package ROCR to determine predicative probability percentages.
A general note: A western blot detects proteins with antibodies after separation by electrophoresis.

For `C/C=C(/C)C(=O)O[C@H]1C(C)=C[C@]23C(=O)[C@@H](C=C(CO)[C@@H](O)[C@]12O)[C@H]1[C@@H](C[C@H]3C)C1(C)C` [PEP005, ingenol-3-angelate], the tolerability entry in series [1] is on record as “well tolerated”. In addition, the plasma binding entry in series [2] was “highly efficient plasma binding”. Moreover, in series [3], the cardiovascular changes entry is reported as “no notable cardiovascular changes” and the “clinical or behavioral effects” value is recorded as “no adverse clinical or behavioral effects”. In addition, the “TH in mouse striatum” value in the series on TH is on record as “increase”. For the same compound, the “SNCA expression (qPCR)” value in the series with SNCA is “downregulated”. Further, the serum concentration result in series [4] (1 hour after) is recorded as “below detectable limits”. Moreover, the clearance result in series [4] (>blood flow through the liver) is listed as “very high clearance”. The “cleaved (active) caspase 3 (CC3)” value in the series with cleaved caspase 3 (CC3) is on record as “marked decrease”. In addition, in the series with cleaved caspase 3 (CC3) (listed as PEP), the “cleaved (active) caspase 3 (CC3)” value is on record as “marked decrease”.

The values are drawn from patent publication US12564568B2, “PKC pathway in Parkinson's Disease” (CEDARS-SINAI MEDICAL CENTER, priority 2018, dated 2026).
